Measured values from paper PMC10082216 (Nature Communications, 2023).
Where a name gives a salt, the structure may show the parent alone. Read-outs that look alike come from different tables or passages of the source.

How the values were obtained:
[1] = Hit scoring on safety in human subjects and pharmacokinetics; conditions: for Score (PK): peak plasma concentration vs IC50
Source text: Hits from the ReFrame library were further selected based on safety, preferably oral administration (high score if oral), and potential availability for widespread use.

[2] = system: mature stage V gametocytes (NF54 strain); assay: High-throughput screening: killing effect by MitoTracker staining, primary screening at 1.11 µM and dose-response analysis; assay type: cell-based, Plasmodium falciparum; conditions: read-out: Killing IC50
Method: (§1) Screening was conducted as previously described. Briefly, mature stage V gametocytes (NF54 strain) were cultured in vitro, then exposed to the explored compounds and filtered thereafter through layers of microspheres (microsphiltration)[25],[28]. Stiffening activity was determined by comparing gametocytemia up and downstream from the microsphere layers after filtration of drug-exposed gametocytes in 384-well plates using a vacuum manifold. Gametocytemia was assessed using DNA (Sybr Green) and erythrocyte membrane (CellMask) staining. Killing effect was assessed by MitoTracker staining. We screened two small libraries, specifically the Pathogen Box from the Medicine for Malaria Venture and the Kinase Inhibitors Box from GSK (400 and 350 compounds, respectively, Fig. 1A, B), and furthermore the larger ReFrame repurposing library (12,805 compounds, Fig. 1C).
(§2) The Pathogen Box library (400 compounds, provided by MMV-Medicine for Malaria Ventures, Geneva, Switzerland), the Kinase Inhibitors Box library (350 compounds, provided by GSK-Glaxo SmithKline DDW Unit, Tres Cantos, Spain), and the ReFrame library (12,805 compounds provided by the California Institute for Biomedical Research-Calibr, La Jolla, CA, USA) were used according to the providers’ instructions. DMSO-solubilized compounds (10 mM stock concentration) were loaded in 384-well plates (Seahorse, cat. no. 201035−100). Two columns were left empty for the controls. For each compound, 5 nL were pre-spotted in a single well to reach a final concentration of 1.11 μM. The final volume for each well was 45 μl. Controls were prepared as follows: 22.5 nL of DMSO were loaded in 16 wells as negative controls (0.05% final concentration); 22.5 nL of NITD609 (provided by MMV, Geneva, Switzerland) 1 mM were loaded in 8 wells (0.5 μM final concentration), 17 nL of Calyculin A (Sigma, cat. no. C5552) […] were loaded in 6 wells (75 nM final concentration) and 225 nL of Gentian Violet (MolPort, cat. no. 002-133-551) 10 mM were loaded in the remaining 2 wells (50 μM final concentration). Plates were prepared in triplicate for the Pathogen Box and sextuplicate for the Kinase Inhibitors Box.
(§3) Plasmodium falciparum NF54 strain parasites (used for screening campaign) were cultured at 4% hematocrit in RBCs from informed blood donors (blood group A) as previously described. Parasites were taken from the -80 °C freezer, then rapidly melt for 1 minute in a 37 °C water bath. A saline solution was gently added to avoid the lysis. Firstly, NaCl dissolved at 12% in distilled water (1/5 of the volume measured in the cryovial) and then NaCl dissolved at 1.6% (9 times the cryovial’s volume). After that, fresh RBCs were added to allow parasites re-growth. Infected RBCs were kept in RPMI medium (Sigma-Aldrich, cat. no. R4130), supplemented with 10% of decomplemented human serum, hypoxanthine 50 mg/l (Sigma-Aldrich, cat. no. H9636). Biobank of Castilla y Leon and Centro de Transfusiones de Madrid as providers of human red blood cell concentrates. The production of gametocytes was induced from a 0.5% ring-stage parasitemia (day 0). Medium was changed daily to induce gametocytes differentiation, as previously described. At day 17, gametocytes were concentrated using a density gradient medium (NycoPrep 1.077, Progen cat. no. 1114550)[27]. Parasitemia was adjusted by FACS (SYBR-Green and MitoTracker double staining, 3–5% targeted). Hematocrit was adjusted to 0.5% by adding fresh RBCs and controlled by manual counting in a Neubauer chamber (Celeromics, cat. no. 717810). Finally, the gametocyte suspension was poured (45 μL/well) into the compound-containing 384-well microplate, then incubated 24 hours both for the screening campaign and the dose-response analysis. Both asexual and sexual stages were cultivated in RPMI 1640 supplemented with 25 mM HEPES, 50 mg/L hypoxanthine, 50 μg/mL gentami-cin, 10% pooled heat-inactivated human serum (A^+).

[3] = system: mature stage V gametocytes (NF54 strain); assay: microbe, parasite or virus in culture; assay type: cell-based, Plasmodium falciparum; conditions: read-out: Stiffening IC50 (retention)
Method: as §1, §2, §3

P.falciparum Dd2 = system: P.falciparum Dd2; parameters: method as in previously published reports (Table S1 legend); conditions: 72 h; results in previous assays; ref previously published reports (Table S1 legend); read-out: 72-h Dd2-SybrGreen PBFS assay IC50; cited from earlier work
HepG2 = conditions: cited from earlier work
HEK293T = conditions: cited from earlier work
[4] = stage V gametocytes NF54, 24 h, dose-response analysis, N/A = not active in dose-response analysis
[5] = Plasmodium falciparum, NF54, 24 h, stage V gametocytes NF54, 24 h, dose-response analysis, N/A = not active in dose-response analysis
[6] = Plasmodium falciparum, NF54, 24 h
[7] = read-out: Cellular cytotoxicity assay IC50, HepG2, 72 h, second value of cell, ref previously published reports (Table S1 legend)
[8] = read-out: Cellular cytotoxicity assay IC50, HEK293T, 72 h, first value of cell, ref previously published reports (Table S1 legend)

COC(=O)C1=C(C)NC(C)=C(C(=O)OC)C1c1cc([N+](=O)[O-])ccc1OCCCCNCC(O)COc1ccccc1 (stereo not drawn) [YM 161514]
Score (safety) [1]: 0
Score (PK) [1]: 0
IC50 [2, 4]: 5.55 µM
IC50 [3, 4]: 3.6 µM
IC50 (P.falciparum Dd2): 2.26 µM
IC50 (HepG2): 3.97 µM

O=C(NO)c1cnc(N2C[C@@H]3[C@H](C2)[C@H]3NCc2ccc3cc(F)ccc3n2)nc1 [CHR-3996]
Score (safety) [1]: 0
Score (PK) [1]: 0
IC50 [2, 5]: 0.07 µM
IC50 [3, 6]: 7.23 µM
IC50 (P.falciparum Dd2): 0.015 µM
IC50 (HepG2): 0.127 µM
IC50 (HEK293T): 0.728 µM

C(=N\NC1=NCCN1)/c1c2ccccc2c(/C=N/NC2=NCCN2)c2ccccc12 [Bisantrene HCl]
IC50 [2, 4]: 2.2 µM
IC50 (P.falciparum Dd2): 0.065 µM
IC50 (HepG2; [7]): 0.062 µM
IC50 (HEK293T; [8]): 0.054 µM

CC1CCC(C(C)C)C(OC(=O)C[N+](C)(C)CCCCCCCCCC[N+](C)(C)CC(=O)OC2CC(C)CCC2C(C)C)C1 (stereo not drawn) [Decamethoxine]
IC50 [2, 4]: 8.1 µM
IC50 [3, 4]: 1 µM
IC50 (P.falciparum Dd2): 0.061 µM
IC50 (HepG2): 4.3 µM
IC50 (HEK293T): 3.3 µM

C[C@H]1O[C@@H](O[C@H]2[C@@H](O)C[C@H](O[C@H]3[C@@H](O)C[C@H](O[C@H]4CC[C@@]5(C)[C@H](CC[C@@H]6[C@@H]5CC[C@]5(C)[C@@H](C7=CC(=O)OC7)CC[C@]65O)C4)O[C@@H]3C)O[C@@H]2C)C[C@H](O)[C@@H]1O [Digitoxin]
Score (safety) ([1]; human): 3
Score (PK) [1]: 0
IC50 [3, 6]: 10.6 µM
IC50 (HepG2; [7]): 0.011 µM
IC50 (HEK293T; [8]): 0.008 µM

Cc1nc2c(s1)C(O)=C/C(=N\CCN(C)C)C2=O [BN-82685]
IC50 [2, 5]: 2.8 µM
IC50 [3, 6]: 4.6 µM
IC50 (P.falciparum Dd2): 1.74 µM
IC50 (HepG2; [7]): 1.89 µM
IC50 (HEK293T; [8]): 2.92 µM

CC(=O)O[C@H]1C[C@H](O[C@H]2[C@@H](O)C[C@H](O[C@H]3[C@@H](O)C[C@H](OC4CC[C@@]5(C)[C@H](CC[C@@H]6[C@@H]5CC[C@]5(C)[C@@H](C7=CC(=O)OC7)CC[C@]65O)C4)O[C@@H]3C)O[C@@H]2C)O[C@H](C)[C@H]1O[C@@H]1O[C@H](CO)[C@@H](O)[C@H](O)[C@H]1O (stereo partly drawn) [Lanatoside A]
Score (safety) ([1]; human): 0
Score (PK) [1]: 0
IC50 [3, 6]: 0.86 µM
IC50 (P.falciparum Dd2): 9.95 µM
IC50 (HepG2; [7]): 0.136 µM
IC50 (HEK293T; [8]): 0.171 µM

CO[C@H]1/C=C\C=C(/C)C(=O)NC2=CC(=O)C(NCCN(C)C)=C(C[C@@H](C)C[C@H](OC)[C@H](O)[C@@H](C)/C=C(\C)[C@@H]1OC(N)=O)C2=O [Alvespimycin hydrochloride]
IC50 ([2]; Plasmodium falciparum, stage V gametocytes NF54, 24 h, dose-response analysis, N/A = not active in dose-response analysis): 1.75 µM
IC50 [3, 6]: 0.96 µM
IC50 (P.falciparum Dd2): 0.272 µM
IC50 (HepG2; [7]): 0.014 µM
IC50 (HEK293T; [8]): 0.098 µM

Tyrothricin
IC50 (HepG2): 1.9 µM
IC50 (HEK293T): 1.8 µM

CCCCCCCCN=c1ccn(CCCCCCCC)cc1 [Pirtenidine]
Score (safety) [1]: 0
Score (PK) [1]: 0
IC50 [2, 4]: 2.79 µM
IC50 [3, 4]: 3.65 µM
IC50 (P.falciparum Dd2): 0.615 µM
IC50 (HepG2): 0.285 µM
IC50 (HEK293T): 1.48 µM

Cc1cc(Nc2ncc(Cl)c(Nc3ccccc3S(=O)(=O)C(C)C)n2)c(OC(C)C)cc1C1CCNCC1 [Ceritinib]
Score (safety) [1]: 0
Score (PK) [1]: 0
IC50 [2, 5]: 10 µM
IC50 [3, 6]: 10.5 µM

CC1=C(C)C(=O)C(CCCCCCCCCC[P+](c2ccccc2)(c2ccccc2)c2ccccc2)=CC1=O [SkQ1]
IC50 [2, 4]: 3.85 µM
IC50 [3, 4]: 1.9 µM
IC50 (P.falciparum Dd2): 1.05 µM
IC50 (HepG2): 3.13 µM
IC50 (HEK293T): 0.778 µM

C[C@@H]1O[C@@H](O[C@H]2CC[C@]3(C=O)[C@H]4CC[C@]5(C)[C@@H](C6=CC(=O)OC6)CC[C@]5(O)[C@@H]4CC[C@]3(O)C2)[C@H](O)[C@H](O)[C@H]1O [Convallatoxin]
IC50 [3, 6]: 0.05 µM
IC50 (P.falciparum Dd2): 0.016 µM
IC50 (HepG2; [7]): 0.033 µM
IC50 (HEK293T; [8]): 0.026 µM

CC[C@H]1CN2CCc3cc(OC)c(OC)cc3[C@@H]2C[C@@H]1C[C@H]1NCCc2cc(O)c(OC)cc21 [Cephaeline]
IC50 [2, 6]: 1 µM
IC50 [3, 6]: 3.8 µM
IC50 (P.falciparum Dd2): 0.028 µM
IC50 (HepG2; [7]): 0.062 µM
IC50 (HEK293T; [8]): 0.014 µM

CC(=O)[O][Hg][c]1cc(C(C)(C)CC(C)(C)C)ccc1O [Acetomeroctol]
IC50 [2, 4]: 7.2 µM
IC50 [3, 4]: 5 µM
IC50 (HepG2; [7]): 1.92 µM
IC50 (HEK293T; [8]): 0.462 µM

COc1ccc(NC(=O)N2CCCCN3[C@H](CN(C)C)[C@H](c4ccc(C#Cc5ccccc5)cc4)[C@@H]3C2)cc1 [BRD-7929]
Score (safety) [1]: 0
Score (PK) [1]: 0
IC50 [2, 4]: 2.2 µM
IC50 [3, 4]: 3.8 µM

CN(C)CCOc1ccc2[nH]c(C(=O)NCC#Cc3ccc(C(=O)NO)cc3)cc2c1 [CRA-026440]
IC50 [2, 4]: 16 µM
IC50 [3, 4]: 0.55 µM
IC50 (P.falciparum Dd2): 0.063 µM
IC50 (HepG2): 0.011 µM
IC50 (HEK293T): 0.081 µM

CO[C@H]1C[C@H](O[C@H]2CC[C@]3(C=O)[C@H]4CC[C@]5(C)[C@@H](C6=CC(=O)OC6)CC[C@]5(O)[C@@H]4CC[C@]3(O)C2)O[C@H](C)[C@H]1O [Cymarine]
Score (safety) ([1]; human): 0
Score (PK) [1]: 0
IC50 [3, 6]: 0.33 µM
IC50 (P.falciparum Dd2): 9.95 µM
IC50 (HepG2; [7]): 0.102 µM
IC50 (HEK293T; [8]): 0.071 µM

O=C(NCCN1CCCC1)c1cc(-c2ccc(CN3CCOCC3)cc2)nc2ccc(F)cc12 [DDD498]
Score (safety) [1]: 0
Score (PK) [1]: 0
IC50 [2, 5]: 1.7 µM
IC50 [3, 6]: 2.6 µM
IC50 (P.falciparum Dd2): 0.004 µM

COC(=O)C[C@](O)(CCCC(C)(C)O)C(=O)O[C@@H]1C(OC)=C[C@]23CCCN2CCc2cc4c(cc2[C@H]13)OCO4 [Homoharringtonine]
IC50 [2, 5]: 1.73 µM
IC50 [3, 6]: 2.3 µM
IC50 (P.falciparum Dd2): 0.007 µM
IC50 (HepG2): 0.122 µM
IC50 (HEK293T): 0.032 µM

CO[C@H]1[C@H](O)[C@H](O[C@H]2CC[C@@]3(C=O)[C@H](CC[C@@H]4[C@@H]3CC[C@]3(C)[C@@H](C5=CC(=O)OC5)CC[C@]43O)C2)O[C@@H](C)[C@@H]1O [Peruvoside]
IC50 [3, 6]: 2.68 µM
IC50 (P.falciparum Dd2): 9.95 µM
IC50 (HepG2; [7]): 0.032 µM
IC50 (HEK293T; [8]): 0.02 µM

CCCCC(CC)CNC(=N)NC(=N)NCCCCCCNC(=N)NC(=N)NCC(CC)CCCC (stereo not drawn) [Alexidine dihydrochloride]
IC50 [2, 5]: 41 µM
IC50 [3, 6]: 0.55 µM
IC50 (P.falciparum Dd2): 0.032 µM
IC50 (HepG2; [7]): 3.06 µM
IC50 (HEK293T; [8]): 3.33 µM

COc1cccc2c1ccc1nc3cccc(C(=O)N[C@H](C)CN(C)C)c3nc12 [MLN 576]
Score (safety) [1]: 0
Score (PK) [1]: 0
IC50 [3, 4]: 5.02 µM
IC50 (P.falciparum Dd2): 2.04 µM
IC50 (HepG2): 0.413 µM
IC50 (HEK293T): 0.218 µM

COc1cccc2c1C(=O)c1c(O)c3c(c(O)c1C2=O)C[C@@](O)(C(C)=O)C[C@@H]3O[C@H]1C[C@H](N)[C@H](O)[C@H](C)O1 [Daunorubicin]
IC50 [3, 6]: 12 µM
IC50 (HepG2): 0.126 µM
IC50 (HEK293T): 0.039 µM
